Structures can show the parent of a compound that is named as a salt.
How the values were obtained:
[1] = in vivo, metabolite; cited from earlier work
[2] = test system: agitation in patients with Alzheimer's Dementia (AD); assay: Clinical trial of oral fasudil in reducing agitation in patients with Alzheimer's Dementia (CMAI score); assay type: in vivo, human
Experimental: All the patients were treated for 6 weeks with 90 mg per day (30 mg TID) and a subset of patients was treated an additional 6 weeks with 180 mg per day (60 mg TID). […] A variety of assessments were conducted at baseline and at the end of treatment, including the NPI-Q and the CMAI.
Two baseline thresholds were set, and two analyses were done based on the two groupings that resulted. One threshold was based on the agitation/aggression domain of the NPI-Q and the other based on the CMAI score.
The first selection was based on NPI-Q score of ≥4.
The second selection required a baseline CMAI score of ≥20 and this yielded a 13-patient subgroup, having a mean baseline CMAI score of 34.4. […] All the patients selected using the NPI-Q agitation/aggression domain score of ≥4 were also included in this subgroup.
The analysis looked at the CMAI score prior to treatment and compared it to the last day of treatment (6 weeks for the 10 patients on the low dose and 12 weeks for the 3 patients on the high dose).

[3] = test system: mice; conditions: six-month old mice, 10 mg/kg oral gavage once a day for 30 days; reduction indicates anxiety; cited from earlier work

**Q.** For `O=S(=O)(c1cccc2c(O)nccc12)N1CCCNCC1` [M3], which half-life [1] is on record?
**A.** Its half-life is “about 8 hours”.

**Q.** Which “tolerability of treatment regimens” value ([2]; nineteen AD patients, 90 mg per day (30 mg TID) 6 weeks and 180 mg per day (60 mg TID) additional 6 weeks) does the source give for `O=S(=O)(c1cccc2cnccc12)N1CCCNCC1` [fasudil HCl hemihydrate, Hexahydro-1-(5-isoquinolinesulfonyl)-1H-1,4-diazepine monohydrochloride hemihydrate] here?
**A.** The value was “well tolerated”.

**Q.** For `O=S(=O)(c1cccc2cnccc12)N1CCCNCC1` [fasudil], which “difference in mean CMAI score, baseline vs end of treatment” value ([2]; six patients with baseline NPI-Q score >=4, 90 mg per day (30 mg TID) for 6 weeks) is on record?
**A.** Its value is 22.3.

**Q.** And the “mean CMAI score at the end of treatment” value ([2]; six patients with baseline NPI-Q score >=4, 90 mg per day (30 mg TID) for 6 weeks, mean baseline CMAI 45.3)?
**A.** The value was 23.0.

**Q.** What about the “difference in mean CMAI score, prior to treatment vs end of treatment” value ([2]; thirteen patients with baseline CMAI score >=20, 6 weeks at 90 mg per day (10 patients) or additional 6 weeks at 180 mg per day (3 patients)) of the same molecule?
**A.** Its value is 12.6.

**Q.** And the “mean CMAI score at the end of treatment” value ([2]; thirteen patients with baseline CMAI score >=20, 6 weeks at 90 mg per day (10 patients) or additional 6 weeks at 180 mg per day (3 patients), mean baseline CMAI 34.4)?
**A.** The value was 21.8.

**Q.** What about the “amount of time spent in the open arms of the maze” value [3] of the same molecule?
**A.** Its value is “significantly reduced”.
